Test results reported in patent US6861217B1, “Variation in drug response related to polymorphisms in the β2-adrenergic receptor” (Genaissance Pharmaceuticals, Inc., priority 1998, dated 2005).

System: patients with asthma
Assay: bronchodilating response (FEF25-75) to albuterol in patients with asthma by 5′LC genotype
Assay type: in vivo, human
Conditions: for patients exhibiting a bronchodilating response (increase in FEF25-75 greater than 12%): 180 micrograms aerosolized, 30 minutes
Text: For this study, 134 patients with asthma were enrolled to determine whether either of the polymorphisms at nucleic acid −47 in the β2AR gene alter the bronchodilating response to β-agonist. The percent (%) change in the forced expiratory flow between 25% and 75% of the forced vital capacity (FEF25-75) was used as a measure of responsiveness. Patients underwent pulmonary function testing to measure FEF25-75 and then received 2 puffs (total of 180 micrograms) of aerosolized albuterol by metered dose inhaler. Thirty minutes later the FEF25-75 measurement was repeated. Based on accepted national standards, an increase in FEF25-75 of greater than 12% was considered a response, while 12% or less was considered no response.

Compound: CC(C)(C)NCC(O)c1ccc(O)c(CO)c1 (stereo not drawn) [albuterol]
- patients exhibiting a bronchodilating response (increase in FEF25-75 greater than 12%) (TT genotype at the 5′LC PS): 28.8%
- odds ratio for having no response (TT genotype versus TC or CC): 2.47
- patients exhibiting a bronchodilating response (increase in FEF25-75 greater than 12%) (without TT genotype (TC or CC)): 71.1%
